Source: patent US20180085386A1, “URIDINE MONOPHOSPHATE AND TRIPHOSPHATE DERIVATIVES, COMPOSITIONS AND METHODS OF USE” (Tufts University, priority 2016, published 2018)

System: circulating cytokines in plasma of PSAPP mice
Assay: Circulating cytokine levels in plasma of PSAPP mice (multiplex)
Format: in vivo, mouse
Details: vs vehicle
Method: As part of the study described in Example 16, the levels of numerous cytokines in plasma of mice treated with vehicle or compound 5 were also evaluated. As described in Example 16, treatment was initiated when the mice were approximately 3 months old. PSAPP mice were treated for 100 days with daily injections of 10 μg/kg of compound 5 or vehicle. Following treatment and the fear conditioning task experiment, plasma was taken for multiplex cytokine analysis of circulating cytokine levels in vehicle-treated versus compound-treated PSAPP mice. Cytokine levels are assayed using a multi-plex system where beads are labelled with capture antibody specific for each analyte tested. Each bead set is coupled to a specific capture antibody and is distinguishable from beads coupled to a different capture antibody. Thus, the levels of each analyte can be evaluated and distinguished. […] In FIGS. 10-13, compound 5 is indicated along the x-axis as “compound”.
In this study, treatment of PSAPP mice commenced when the mice were pre-symptomatic. Specifically, treatment was initiated when the mice were approximately 3 months old. PSAPP mice were treated for 100 days with daily, intraperitoneal injections of 10 μg/kg of compound 5 or vehicle. Following treatment, mice were assessed for the following: concentration of circulating pro-inflammatory cytokines; amyloid beta load (e.g., plaque burden); and memory in a fear conditioning task for memory formation. The data provided in Example 18 is for 18 vehicle treated mice and 20 compound treated mice. The data provided for the vehicle-treated group is the average across those mice, and error bars depict the standard error (SEM). Similarly, the data provided for the compound-treated group is the average across those mice, and the error bars depict the SEM. Mice were first evaluated in the fear conditioning task experiment. Subsequently, plasma was taken for multiplex cytokine analysis of circulating levels of cytokine in the plasma. Finally, plaque burden was assessed in the cortex and hippocampus of the mice.
In this study, treatment of PSAPP mice commenced after the mice were already symptomatic. Specifically, treatment was initiated when the mice were approximately 6 months old. PSAPP mice were treated for 7 days with daily, intraperitoneal injections of 10 μg/kg of compound 5 or vehicle. Following treatment, mice were assessed for the following: concentration of circulating pro-inflammatory cytokines; amyloid beta load (e.g., plaque burden); and plaque size. The data provided in Example 19 is for 7 vehicle treated mice and 7 compound treated mice. The data provided for the vehicle-treated group is the average across those mice, and error bars depict the standard error (SEM). Similarly, the data provided for the compound-treated group is the average across those mice, and the error bars depict the SEM. Plasma was taken for multiplex cytokine analysis of circulating levels of cytokine in the plasma. Subsequently, plaque burden was assessed in the cortex (using Aβ40) and hippocampus (using Aβ42) of the mice, and plaque size was also assessed.

[1] = 10 μg/kg daily for 100 days, Example 18
[2] = 10 μg/kg daily for 100 days, Example 18, FIG. 10
[3] = 10 μg/kg i.p. daily for 7 days from ~6 months (symptomatic), Example 20, FIG. 16
[4] = 10 μg/kg i.p. daily for 100 days from ~3 months, Example 19, FIG. 14

## O=c1ccn([C@@H]2O[C@H](CO)C(O)C2O)c(=O)n1Cc1noc2ccccc12 (stereo in doubt) [compound 5]
[1]
  average plasma level of IFN-r: reduced
  average plasma level of IL-1β: reduced
  average plasma level of IL-2: reduced
  average plasma level of IL-3: reduced
  average plasma level of IL-5: reduced
  average plasma level of IL-6: reduced
  average plasma level of IL-7: reduced
  average plasma level of IL-9: reduced
  average plasma level of IL-13: reduced
  average plasma level of IL-17: reduced
  average plasma level of LIF: reduced
  average plasma level of MIP-1α: reduced
  average plasma level of MIP-1β: reduced
  plasma level of Eotaxin: no or substantially no change
  plasma level of G-CSF: no or substantially no change
  plasma level of GM-CSF: no or substantially no change
  plasma level of IL-1α: no or substantially no change
  plasma level of IP-10: no or substantially no change
  plasma level of LIX: no or substantially no change
  plasma level of M-CSF: no or substantially no change
  plasma level of MCP-1: no or substantially no change
  plasma level of MIP-2: no or substantially no change
[2]
  plasma level of IL-4: statistically significant reduction
  plasma level of IL-10: statistically significant reduction
  plasma level of IL-12 (IL-12(p70)): statistically significant reduction
  plasma level of IL-12(p40) (p40 subunit alone): does not reflect a change
[3]
  plasma level of IL-10: statistically significant reduction
  plasma level of IL-12 (IL-12(p70)): statistically significant reduction
  plasma level of IL-13: statistically significant reduction
  plasma level of IL-17: statistically significant reduction
  plasma level of MIP-1a: statistically significant reduction
  plasma level of MIP-1b: statistically significant reduction
  plasma level of TNFα: statistically significant reduction
[4]
  plasma level of IL-2: statistically significant reduction
  plasma level of IL-4: statistically significant reduction
  plasma level of IL-10: statistically significant reduction
  plasma level of IL-12 (IL-12(p70)): statistically significant reduction
  plasma level of IL-13: statistically significant reduction
  plasma level of IL-17: statistically significant reduction
  plasma level of MIP-1a: statistically significant reduction
  plasma level of MIP-1b: statistically significant reduction
